Ends that are not written are not given here.
Experiments:
[1] = test system: human peripheral blood mononuclear cells (MCP-1); test: SPOT-synthesized derivative screen: production of chemokine MCP-1; format: cell-based; settings: Table 12, No LPS, human PBMC, peptide at ~18-24 μM; for MCP1: background subtracted 139 (HH2 derivatives), 170 (1018 derivatives), 242 (1002 and hybrid peptides) pg/ml
Experimental: Venous blood (20 ml) from healthy volunteers was collected in Vacutainer® collection tubes containing sodium heparin as an anticoagulant (Becton Dickinson, Mississauga, ON) in accordance with UBC ethical approval and guidelines. Blood was diluted 1:1 with complete RPMI 1640 medium and separated by centrifugation over a Ficoll-Paque® Plus (Amersham Biosciences, Piscataway, N.J., USA) density gradient. White blood cells were isolated from the buffy coat, washed twice in RPMI 1640 complete medium, and the number of peripheral blood mononuclear cells (PBMC) was determined by Trypan blue exclusion. PBMC (5×10^5) were seeded into 12-well tissue culture dishes (Falcon; Becton Dickinson) at 0.75 to 1×10^6 cells/ml at 37° C. in 5% CO2. The above conditions were chosen to mimic conditions for circulating blood monocytes entering tissues at the site of infection via extravasation.
Following incubation of the cells under various treatment regimens, the tissue culture supernatants were centrifuged at 1000×g for 5 min, then at 10,000×g for 2 min to obtain cell-free samples. Supernatants were aliquoted and then stored at −20° C. prior to assay for various chemokines by capture ELISA (eBioscience and BioSource International Inc., CA, USA respectively)

[2] = test system: LPS-stimulated human peripheral blood mononuclear cells (IL1-β); format: cell-based; settings: Table 12, cells stimulated with 10 ng/ml LPS; for IL1β Production: LPS alone 1313 (HH2 derivatives), 1927 (1018 derivatives), 2455 (1002 and hybrid peptides) pg/ml
Experimental: LPS from P. aeruginosa strain H103 was highly purified free of proteins and lipids using the Darveau-Hancock method. Briefly, P. aeruginosa was grown overnight in LB broth at 37° C. Cells were collected and washed and the isolated LPS pellets were extracted with a 2:1 chloroform:methanol solution to remove contaminating lipids. Purified LPS samples were quantitated using an assay for the specific sugar 2-keto-3-deoxyoctosonic acid (KDO assay) and then resuspended in endotoxin-free water (Sigma-Aldrich).

[3] = test system: methicillin resistant Staphylococcus aureus (MRSA) biofilm; settings: approximate peptide concentration […] (around 3 μg/ml); compared to untreated samples
Experimental: Methods of assessment of anti-biofilm activity—Biofilm formation was initially analyzed using a static abiotic solid surface assay as described elsewhere (de la Fuente-Nunez et al., 2012). Dilutions (1/100) of overnight cultures were incubated in BM2 biofilm-adjusted medium [62 mM potassium phosphate buffer (pH 7), 7 mM (NH4)2SO4, 2 mM MgSO4, 10 μM FeSO4, 0.4% (wt/vol) glucose, 0.5% (wt/vol) Casamino Acids], or a nutrient medium such as Luria Broth, in polypropylene microtiter plates (Falcon, United States) in the absence (control) or presence of peptide. Peptide was added at time zero (prior to adding the diluted, overnight cultures) in varying concentrations, and the decrease in biofilm formation was recorded at 22-46 h for most bacteria. Planktonic cells were removed, biofilm cells adhering to the side of the tubes were stained with crystal violet, and absorbance at 595 nm was measured using a microtiter plate reader (Bio-Tek Instruments Inc., United States). Some peptides were screened against two Gram negative organisms, P. aeruginosa and K. pneumoniae using a Bioflux apparatus (AutoMate Scientific, Berkeley, Calif.; http://www.autom8.com/bioflux_biofilm.html), which allows for the high-throughput, real-time analysis of biofilms.

Substance | Fold increase in MCP1 cf. untreated cells [1] | MCP1 [1] | Fold change in IL1β relative to no peptide LPS stimulated cells [2] | IL1β Production [2] | % Biofilm inhibition [3]
1018-W4: single substituted 1018 peptide (VRLWVAVRIWRR-NH2) [Peptide 1018-W4] | 1.2 | 29 pg/mL | 0.14 | 182 pg/mL | 67%
1018-G11: single substituted 1018 peptide (VRLIVAVRIWGR-NH2) [Peptide 1018-G11] | 48 | 7922 pg/mL | 0.91 | 1189 pg/mL | 40%
1002-Q11: single substituted 1002 peptide (VQRWLIVWRIQK-NH2) [Peptide 1002-Q11] | 13.5 | 3022.9 pg/mL | 0.05 | 127 pg/mL | 67%
1002-Q9: single substituted 1002 peptide (VQRWLIVWQIRK-NH2) [Peptide 1002-Q9] | 7.2 | 1514.2 pg/mL | 0.05 | 127 pg/mL | 41%
HH2-K7: single substituted HH2 peptide (VQLRIRKAVIRA-NH2) | 1.7 | 117 pg/mL | 1.36 | 1782 pg/mL | 7%
HH2-W4: single substituted HH2 peptide (VQLWIRVAVIRA-NH2) | 24 | 3945 pg/mL | 0.30 | 399 pg/mL | 58%
1018-W12: single substituted 1018 peptide (VRLIVAVRIWRW-NH2) [Peptide 1018-W12] | 1.5 | 79 pg/mL | 0.34 | 441 pg/mL | 65%
1002-V11: single substituted 1002 peptide (VQRWLIVWRIVK-NH2) [Peptide 1002-V11] | 3.2 | 541.2 pg/mL | 0.05 | 127 pg/mL | 68%
HH2-W9: single substituted HH2 peptide (VQLRIRVAWIRA-NH2) | 31 | 4995 pg/mL | 0.80 | 1050 pg/mL | 75%
HH2-R12: single substituted HH2 peptide (VQLRIRVAVIRR-NH2) | 51 | 8574 pg/mL | 1.23 | 1618 pg/mL | 80%
HH2-A11: single substituted HH2 peptide (VQLRIRVAVIAA-NH2) | 5.9 | 833 pg/mL | 1.60 | 2105 pg/mL | 64%
1002-K8: single substituted 1002 peptide (VQRWLIVKRIRK-NH2) [Peptide 1002-K8] | 0.9 | -36.2 pg/mL | 0.66 | 1632 pg/mL | 0%
1002-G1: single substituted 1002 peptide (GQRWLIVWRIRK-NH2) [Peptide 1002-G1] | 14.8 | 3335.7 pg/mL | 0.05 | 127 pg/mL | 68%
1018-W3: single substituted 1018 peptide (VRWIVAVRIWRR-NH2) [Peptide 1018-W3] | 6.6 | 953 pg/mL | 0.10 | 127 pg/mL | 66%
HH2-V3: single substituted HH2 peptide (VQVRIRVAVIRA-NH2) | 211 | 35750 pg/mL | 1.27 | 1665 pg/mL | 57%
HH2-I1: single substituted HH2 peptide (IQLRIRVAVIRA-NH2) | 51 | 8573 pg/mL | 0.84 | 1103 pg/mL | 73%
HH2-Q9: single substituted HH2 peptide (VQLRIRVAQIRA-NH2) | 34 | 5588 pg/mL | 1.01 | 1321 pg/mL | 43%
1002-K4: single substituted 1002 peptide (VQRKLIVWRIRK-NH2) [Peptide 1002-K4] | 1.4 | 106.3 pg/mL | 0.43 | 1065 pg/mL | 0%
1018-A1: single substituted 1018 peptide (ARLIVAVRIWRR-NH2) [Peptide 1018-A1] | 1.9 | 161 pg/mL | 0.13 | 170 pg/mL | 51%
1002-Q1: single substituted 1002 peptide (QQRWLIVWRIRK-NH2) [Peptide 1002-Q1] | 6.9 | 1423.5 pg/mL | 0.05 | 127 pg/mL | 77%
1002-K2: single substituted 1002 peptide (VKRWLIVWRIRK-NH2) [Peptide 1002-K2] | 2.6 | 392.4 pg/mL | 0.05 | 127 pg/mL | 69%
